Results on two molecules are retold here after patent US12281123B2, “Benzoxazinone compounds as KLK5/7 dual inhibitors” (MOLECULAR SKIN THERAPEUTICS, INC., priority 2019, dated 2025).

In general, IC50 refers to the concentration at which inhibition is half-maximal.

Marks after values point to notes of the source that are not given here.

What all share (assay type): biochemical
In assay [1] the test system is KLK proteases in human skin extract. Put plainly: Inhibition of protease activity in human skin extract. The note with it: human skin extract; for Rate in Skin Assay: compound concentration not given. As for the experimental part:
Materials: The peptide substrates PS-01 (YRSR-pNA Tyr-Arg-Ser-Arg-pNA) (SEQ ID NO. 1) and PS-02 (Lys-His-Leu-Tyr-pNA) (SEQ ID NO. 2) were synthesized by Zamboni Chemical Solutions (Montreal, Canada). Human epidermis samples were obtained from Biopredic (Saint-Grégoire, France). The BCA protein assay kit was bought from VWR.
Preparation of skin extract: The epidermis was frozen and lyophilized. A sample of 15 mg lyophilized epidermis was immersed in 1 mL high salt buffer (100 mM Tris, 5 mM EDTA, 2M KCl, pH 8), frozen twice in dry ice and thawed. After incubation overnight at 4° C. and addition of six 2.4 mm metal beads, the sample was homogenized in a Bertin Precellys Homogenizer (Atkinson, NH) three times at […] for 20 seconds each and cooled in between for 30 seconds. After centrifugation at maximal speed in a desktop minifuge, the protein concentration of the supernatant was determined by BCA assay (˜0.5 mg/mL).
Inhibition of protease activity in skin extract: Stock solutions of 200, 66, 22 and 0 μM of the tested compound in DMSO were prepared. Substrate stocks of 1100 μM PS-01 and PS-02 were prepared by dissolving in water. The wells of a 384 well plate was filled with 50 μL 2× assay buffer (see above) and then 45 μL substrate stock and 5 μL of the test compound were added. The reaction was started by addition of 10 μL skin extract for the substrate PS-02 and 5 μL for the substrate PS-01. The substrate hydrolysis was monitored in multi-well plate reader at 405 nm.
Chromogenic substrate cleavage progressions of Compounds 1.001, 1.002, and 14 were tested according to human stratum corneum extract assay of Example 4 using KLK5 and KLK7 preferred chromogenic peptide substrates (PS-01 and PS-02). The proteolytic cleavage of KLK5 selective substrate in skin extract by Compounds 1.001, 1.002, and 14 are compared and shown in FIGS. 4A-4D. NSK refers to extract from skin freshly prepared; and OSK refers to extract from skin post freeze thaw.

The target in the next assay is T1, KLK7 (Homo sapiens, UniProt P49862).
T1 construct: purchased R&D Biosystems (Minneapolis, MN) / R&Dsystems; host or cells: mouse myeloma cells
T1 sequence (P49862 30-253): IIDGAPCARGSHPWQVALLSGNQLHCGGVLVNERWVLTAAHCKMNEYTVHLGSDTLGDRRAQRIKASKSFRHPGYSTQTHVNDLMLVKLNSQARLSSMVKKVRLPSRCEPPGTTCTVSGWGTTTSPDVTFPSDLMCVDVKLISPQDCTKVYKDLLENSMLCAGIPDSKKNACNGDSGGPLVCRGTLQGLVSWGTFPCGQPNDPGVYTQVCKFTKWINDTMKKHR
Put plainly: Recombinant KLK7 chromogenic IC50 assay. To be noted: Table 2; assay protocol of Example 3; read-out: Recombinant KLK7 enzyme (IC50). The text has this:
(§1) Human Kallikrein Proteins: Recombinant human KLK5 expressed in HEK293 was obtained from SpeedBio (Gaithersburg, MD). Recombinant proenzyme KLK-7 and recombinant proenzyme KLK-14 both expressed in mouse myeloma cells were from R&D Biosystems (Minneapolis, MN). Plasmin and thrombin were from Haematologic Technologies (Essex Junction, VT). Trypsin and Chymotrypsin were bought from Worthington Biochemical Corporation (Lakewood, NJ) and plasma kallikrein was from Prospec (East Brunswick, NJ). Neutrophil Elastase was obtained from Innovative Research (Peary Court, MI). Bovine recombinant enterokinase expressed in E. coli was bought from Sigma (St. Louis, MI). Matriptase expressed in E. coli was obtained from Enzo Life Sciences (Farmingdale, NY). The control inhibitors Nafamostat mesylate was from Sigma (St. Louis, MI) and (2-(2-fluorophenyl)-5,6,7,8-tetrahydro-4H-benzo[4,5]thieno[2,3-d][1,3]oxazin-4-one was from Interbioscreen (Moskow, Russia).
(§2) Substrates: S-2288 (D-Ile-Pro-Arg-pNA), CS-PSA (MeO-Suc-Arg-Pro-Tyr-pNA), S-2266 (H-D-Val-Leu-Arg-pNA) and S-2288 (H-D-Ile-Pro-Arg-pNA) were bought from Diapharma (West Chester, OH). MeOSuccAla-Ala-Pro-Val-pNA was purchased from Sigma (St Louis, MI). The substrates were dissolved in water at 10 mM and were frozen in aliquots at −20° C.
Activation of KLK-7 and KLK-14: 150 μL 8 μM solution of the proenzymes of KLK-7 or KLK-14 in 50 mM Tris, 10 mM CaCl2, 150 mM NaCl, 0.05% (w/v) Brij-35, pH 7.5 were mixed with 150 μL 10 μg/mL bovine enterokinase in the same buffer and incubated for 2 h for KLK-7 and 1 h for KLK-14 at 37° C. After the incubation period, activation was stopped by addition of 6 μL 0.5 M EDTA pH 8.0.
(§3) Assays: All assays were performed in 384 well polystyrene plates coated overnight with 0.1% Tween 20 at 4° C. The plates were then washed twice with 100 μL water and dried. For the determination of IC50 values, the inhibitors were diluted in serial dilutions of 1:3 intervals into pure DMSO at 50 fold of the intended final concentrations in the assays. Usually eight inhibitor dilutions and one DMSO control were prepared. The substrates were diluted into water at 2.2-fold the final concentration in the assay mixture. The wells of the plate were filled with 50 μL of the enzyme diluted in 2× assay buffer (100 mM Tris, 200 mM NaCl, 0.2% PEG, 0.01% Tween, 2 mM EDTA, pH 8.0) at twofold the intended concentration. Then 5 μL DMSO, 2.2 μL inhibitor and 45 μL substrate were added to start the reaction. The assays were monitored at 37° C. in a multi well plate reader at a wavelength of 405 nm (Molecular Devices, San Jose, CA) for 1 h. The tool inhibitor, nafamostat, was used as a control for trypsin, thrombin, KLK-5 and KLK-14 at 10 μM maximal concentration and (2-(2-fluorophenyl)-5,6,7,8-tetrahydro-4H-benzo[4,5]thieno[2,3-d][1,3]oxazin-4-one for KLK-7 at 5 μM.
(§4) The table summarizes assay conditions for the individual enzymes:
(§5) Data analysis: The progress curves of substrate hydrolysis were analyzed by linear regression of the final 20 min of the reaction. Fit of the dose response of the resulting rates to the following equation yielded the IC50:
(§6) [formula] with 1) c: the background rate at the highest inhibitor concentration; 2) d: the rate of the control reaction; 3) IC50: the IC50 of the inhibitor; 4) x: the inhibitor concentration; and 5) b: the slope.
(§7) Proteases: KLK5 (SpeedBioSystems); KLK7 (R&Dsystems) was activated with enterokinase (2 hours, 37° C.) prior to assay; Trypsin (Sigma Aldrich); Chymotrypsin (Sigma Aldrich); Factor Xa (Haematologic Technologies); Plasmin (Haematologic Technologies); KLK14 (R&Dsystems) was activated with enterokinase (1 hour, 37° C.) prior to assay; Thrombin (Haematologic Technologies); Neutrophil Elastase (Athens Research&Technology); and KLK1 (Prospec).

Another assay concerns the target T2, Recombinant human KLK5 (Homo sapiens, UniProt Q9Y337).
T2 construct: purchased SpeedBio (Gaithersburg, MD) / SpeedBioSystems; host or cells: HEK293
T2 sequence (Q9Y337 23-293): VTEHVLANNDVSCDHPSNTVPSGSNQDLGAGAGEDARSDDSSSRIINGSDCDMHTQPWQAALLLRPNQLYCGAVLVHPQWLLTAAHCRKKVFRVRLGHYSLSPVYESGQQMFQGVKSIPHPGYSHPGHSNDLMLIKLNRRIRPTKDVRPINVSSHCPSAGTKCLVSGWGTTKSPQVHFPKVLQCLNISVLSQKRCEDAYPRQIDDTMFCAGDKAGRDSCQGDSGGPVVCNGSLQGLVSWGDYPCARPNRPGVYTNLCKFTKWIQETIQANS
The assay is described as follows: Recombinant KLK5 chromogenic IC50 assay. To be noted: Table 2; assay protocol of Example 3; read-out: Recombinant KLK5 enzyme (IC50).
Excerpt: as §1, §2, §3, §4, §5, §6, §7

Regarding `CS(=O)(=O)c1ccc(CO)cc1-c1nc2cc3c(cc2c(=O)o1)OCCO3` [Compound 1.002, 2-(5-(Hydroxymethyl)-2-(methylsulfonyl)phenyl)-7,8-dihydro-4H-[1,4]dioxino[2′,3′:4,5]benzo[1,2-d][1,3]oxazin-4-one], the “Initial rate of proteolytic activity” value in assay [1] (Conc 1 μM) is reported as 0.1* Absorbance405/min; in assay [1] (Conc 3.3 μM), 0.09* Absorbance405/min. Further, the “Initial rate of substrate hydrolysis” value in assay [1] (Conc 1 μM) is reported as 0.06* Absorbance405/min; in assay [1] (Conc 3.3 μM), 0.05* Absorbance405/min. Besides, the “Rate in Skin Assay” value in assay [1] is listed as 0.009* Absorbance405/min. Moreover, the IC50 on KLK7 worked out at 220 nM; on Recombinant human KLK5, 1570 nM.
As to `CS(=O)(=O)c1ccccc1-c1nc2cc3c(cc2c(=O)o1)OCCO3` [Compound 14, reference compound], the “Initial rate of proteolytic activity” value in assay [1] (Conc 1 μM) was 0.13* Absorbance405/min; in assay [1] (Conc 3.3 μM), 0.11* Absorbance405/min. Further, the results for the “Initial rate of substrate hydrolysis” value in assay [1] (Conc 1 μM) and in assay [1] (Conc 3.3 μM) were 0.1* Absorbance405/min and 0.08* Absorbance405/min, respectively. Besides, the “Rate in Skin Assay” value in assay [1] is reported as 0.14* Absorbance405/min. The 50% inhibitory concentration (IC50) amounted to 130 nM at KLK7 and 240 nM on Recombinant human KLK5.
